Series [1] can be described thus: Solubilization of ITZ by the carrier during hot-melt extrusion at 100° C. (DSC, SEM). To be noted: extruded at 100° C., confirmed by SEM and DSC.
Protocol: A Randcastle Microtruder RCP-0750 hot-melt extruder equipped with a 6 mm round die was operated at 15 RPM, 0.2-0.3 Drive Amps with an Extrusion Temperature of 100° C. to prepare the composition. All powders were blended in a v-shell blender prior to extrusion. Temperature zones were set as follows: zone 1: 90° C., zone 2: 95° C., zone 3: 100° C., die temperature 100° C. The powder blend was placed in a hopper that is located at the head of a vertical screw such that the material is flood fed by gravity. The residence time of the material in the extruder was approximately three minutes. The extrudate was sheared into approximately one foot sections after exiting the die and placed on an aluminum sheets and allowed to cool at ambient conditions.
The fine drug-containing particles and compositions containing them were analyzed by scanning electron microscopy using a Hitachi S-4500 scanning electron microscope. Samples were coated with Au/Pd and an accelerating voltage of 5 kV was used.
Changes in the degree of crystallization of the fine drug-containing particles, either neat or dispersed within a hot-melt extruded composition, were determined and quantified by differential scanning calorimetry. A TA Instruments Model 2920 calorimeter was used to conduct the analyses.
A short description of series [2]: Dissolution test, USP 27 Type II paddle apparatus. As to conditions: 900 ml 0.1 N HCl, 37° C., 50 rpm, equivalent to 10 mg active. It counts as physicochemical. On the procedure:
The dissolution media was 900 ml of 0.1 N HCl, and was de-aerated with helium for approximately 15 minutes before each dissolution test. In all cases where not otherwise specified, the equivalent to 10 mg of the active ingredient was added to each dissolution vessel.

Molecules are shown by their SMILES.

For the compound `CCC(C)n1ncn(-c2ccc(N3CCN(c4ccc(OCC5COC(Cn6cncn6)(c6ccc(Cl)cc6Cl)O5)cc4)CC3)cc2)c1=O` (centres unmarked) [bulk ITZ, itraconazole], the “Solubility of itraconazole in PEO when extruded” value in series [1] is “substantially insoluble”. Besides, the “ITZ drug release (dissolved) in 10 minutes (FIG. 12)” value in series [2] is listed as “less than 1%”.

(Values after patent US9730894B2, “Stabilized HME composition with small drug particles” (BOARD OF REGENTS, THE UNIVERSITY OF TEXAS SYSTEM, priority 2004, dated 2017).)
